# Reference: patent US6623931B2, “Diagnostic assay for antibiotic tolerance” (priority 2001, dated 2003)
# Tests used:
# Type in all cases: cell-based
# [1] = system: Streptococcus pneumoniae; assay: reversal of tolerance by exogenous synthetic Pep27 added with vancomycin; settings: tolerant clinical strains, vancomycin 10×MIC in the absence of peptide
# Method: Pep27 Transport by Vex. In laboratory strains, tolerance has been created by loss of function mutations in the death signal Pep27 or its transporter Vex, the loci contiguous with vncS/R. Tolerance in these cases was attributed to lack of Pep27 or lack of Pep27 export into the supernatant. To assess Pep27 in the supernatant, immunoprecipitations were performed using Pep27 antibody. […] Therefore, extracellular transport of the peptide may be defective in tolerant strains leading to the loss of signal for death through VncS. If so, tolerance should be reversed through the addition of exogenous Pep27 to the culture. To test this, tolerant clinical strains were treated with vancomycin at 10×MIC as before but 0.5 mM synthetic Pep27 was added in conjunction with the antibiotic.
# [2] = system: Streptococcus pneumoniae; assay: lysis after exposure to 10×MIC vancomycin (optical density of the culture)
# Method: Prevalence of vancomycin tolerance in clinical isolates. To determine the prevalence of vancomycin tolerance in Streptococcus pneumoniae in a population of healthy children, 215 nasopharygeal isolates from Vanderbilt University Hospital were screened for lysis after exposure to 10×MIC (minimum inhibitory concentration) vancomycin (5 ug/ml).
# [3] = system: Streptococcus pneumoniae; assay: viability assay after exposure to vancomycin
# Description: To confirm tolerance, the 27 non-lytic strains were subjected to viability assays. […] This is within ±2 standard deviations (SD) of the killing rate for the tolerant Lyt4-4 strain.
# [4] = system: Streptococcus pneumoniae; assay: MIC of tolerant isolates; settings: tolerant clinical isolates
# Method: (§1) Characteristics of Tolerant Isolates. The MIC's of the tolerant isolates ranged from 0.1 ug/ml to 0.3 ug/ml vancomycin and all were resistant to penicillin as evidenced by an oxacillin disc sensitivity test. Tolerance was not correlated with serotype. Frequently, tolerant strains were isolated days to weeks after non-tolerant strains in the same child indicating tolerance could arise during carriage in the nasopharynx. Clonal relatedness between the non-tolerant and tolerant strains isolated sequentially from the same child was assessed by pulse-field gel electrophoresis (PFGE) patterns of SmaI digested genomic DNA. […] Thus, tolerant and non-tolerant strains could be paired for comparison. PFGE indicated a possible serotype switch in one child (Child C), while another child (Child E) was colonized by two separate, yet closely related, tolerant strains.
# [5] = system: Streptococcus pneumoniae; assay: lysis by 1% deoxycholate (activation of functional LytA); settings: all tolerant isolates
# Description: Identification of the Mechanism Contributing to Tolerance. […] Furthermore, all tolerant isolates were lysed by 1% deoxycholate—a detergent that specifically activates functional LytA causing lysis of the bacteria. This eliminated mechanisms of tolerance in the clinical strains that arise from lack of enzyme or loss of amidase activity. Attention thus focused on the only reported mechanism where normal amidase is present: mutation of the vncR/S locus, encoding a two-component sensor regulator system. Western blot analysis confirmed the presence of VncS and VncR in the tolerant clinical isolates.
# [6] = system: Streptococcus pneumoniae; assay: oxacillin disc sensitivity test; settings: tolerant clinical isolates
# Method: as §1
molecule,measurement,setting,value
CN[C@H](CC(C)C)C(=O)N[C@H]1C(=O)N[C@@H](CC(N)=O)C(=O)N[C@H]2C(=O)N[C@H]3C(=O)N[C@H](C(=O)N[C@H](C(=O)O)c4cc(O)cc(O)c4-c4cc3ccc4O)[C@H](O)c3ccc(c(Cl)c3)Oc3cc2cc(c3O[C@@H]2O[C@H](CO)[C@@H](O)[C@H](O)[C@H]2O[C@H]2C[C@](C)(N)[C@H](O)[C@H](C)O2)Oc2ccc(cc2Cl)[C@H]1O [vancomycin],viability diminished,[1],2 logs
same,optical density of the culture,"[2]; 27 of 215 nasopharyngeal isolates that failed to lyse, after 4 hours, 10×MIC vancomycin (5 ug/ml)",above 0.15
same,OD620nm,"[2]; control R6 strain, after 2 hours @ 10×MIC of vancomycin",0.02
same,log kill,"[3]; R6 strain, after 4 hours of exposure to vancomycin",5 log
same,log killing,"[3]; eight tolerant clinical isolates, after 4 hours of exposure to vancomycin",< 3 log
same,viability after antibiotic exposure,[3]; remaining 19 non-lytic isolates,dead after antibiotic exposure
same,MIC,[4],0.1 to 0.3 µg/mL
deoxycholate,lysis of the bacteria,[5],lysed
penicillin,penicillin susceptibility,[6],resistant
